Laboratory results taken from ChEMBL document CHEMBL1137993, “Novel histone deacetylase inhibitors: cyclic tetrapeptide with trifluoromethyl and pentafluoroethyl ketones” (Bioorg Med Chem Lett, 2004).

Test system: Nucleic Acid

Row | EC50 [µM] | SMILES
1 | 3.09 | CC[C@H](C)[C@@H]1NC(=O)[C@@H](Cc2ccc(OC)cc2)NC(=O)[C@H](CCCCCC(=O)C(F)(F)F)NC(=O)[C@H]2CCCN2C1=O
2 | 31.1 | CC[C@H](C)[C@@H]1NC(=O)[C@@H](Cc2ccc(OC)cc2)NC(=O)[C@H](CCCCCC(=O)C(F)(F)C(F)(F)F)NC(=O)[C@H]2CCCN2C1=O
3 | 0.77 | CC(/C=C/C(=O)NO)=C\[C@@H](C)C(=O)c1ccc(N(C)C)cc1 [TRICHOSTATIN]
